# Assays:
# [1] = biological target: T1, MET (Homo sapiens, UniProt P08581); assay: Test A: HTRF MET assay in 96-well format; assay type: biochemical; design: The His-Tev-MET (956-1390) recombinant DNA in pFastBac (Invitrogen) is transfected into insect cells; His (N, cleaved yes); Tev cleavage site (N, cleaved yes); made in house; host or cells: SF21 insect cells (baculovirus, pFastBac); settings: 5 nM MET, 10 μM ATP
# Experimental: I) Expression and Purification of MET, Cytoplasmic Domain
# The His-Tev-MET (956-1390) recombinant DNA in pFastBac (Invitrogen) is transfected into insect cells and, after several viral amplification stages, the final baculovirus stock is tested for the expression of the protein of interest.
# After infection for 72 h at 27° C. with the recombinant virus, the SF21 cell cultures are harvested by centrifugation and the cell pellets are stored at −80° C.
# The cell pellets are resuspended in lysis buffer (buffer A [50 mM HEPES, pH 7.5, 250 mM NaCl, 10% glycerol, 1 mM TECP]; + cocktail of protease inhibitors, Roche Diagnostics, without EDTA, ref. 1873580), stirred at 4° C. until the mixture is homogeneous and then lysed mechanically using a “Dounce” type apparatus.
# After centrifugation, the lysis supernatant is incubated for 2 h at 4° C. with nickel chelate resin (His-Trap 6 Fast Flow™, GE HealthCare). After washing with 20 volumes of buffer A, the suspension is packed into a column, and the proteins are eluted with a gradient of buffer B (buffer A+290 mM imidazole).
# The fractions comprising the protein of interest for the purpose of electrophoretic analysis (SDS PAGE) are combined, concentrated by ultrafiltration (10 kDa cut-off) and injected onto an exclusion chromatography column (Superdex™ 200, GE HealthCare) equilibrated in buffer A.
# After enzymatic cleavage of the histidine tag, the protein is reinjected onto a new IMAC nickel chelate chromatography column (His-Trap 6 Fast Flow™, GE HealthCare) equilibrated in buffer A. The fractions eluted with a gradient of buffer B and comprising the protein of interest after electrophoresis (SDS PAGE) are finally combined and conserved at −80° C.
# For the production of autophosphorylated protein, the previous fractions are incubated for 1 h at ambient temperature after the addition of 2 mM ATP, 2 mM MgCl2, and 4 mM Na3VO4. After the reaction has been stopped with 5 mM of EDTA, the reaction mixture is injected onto a HiPrep desalifying column (GE HealthCare) preequilibrated in buffer A+4 mM Na3VO4, and the fractions comprising the protein of interest (SDS PAGE analysis) are combined and stored at −80° C. The degree of phosphorylation is verified by mass spectrometry (LC-MS) and by peptide mapping.
# A) Test A: HTRF MET Assay in 96-Well Format
# MET at a final concentration of 5 nM is incubated in a final volume of 50 μl of enzymatic reaction in the presence of the test molecule (for a final concentration range of from 0.17 nM to 10 μM, 3% DMSO final concentration) in 10 mM MOPS buffer, pH 7.4, 1 mM DTT, 0.01% Tween 20. The reaction is initiated with the substrate solution to obtain final concentrations of 1 μg/ml poly-(GAT), 10 μM ATP and 5 mM MgCl2. After incubation for 10 min at ambient temperature, the reaction is stopped with a 30 μl mix so as to obtain a final solution of 50 mM Hepes, pH 7.5, 500 mM potassium fluoride, 0.1% BSA and 133 mM EDTA in the presence of 80 ng of streptavidin 61SAXLB Cis-Bio Int. and 18 ng of anti-phosphotyrosine Mab PT66-Europium Cryptate per well. After incubation for 2 hours at ambient temperature, the reading is taken at 2 wavelengths, 620 nm and 665 nm, on a reader for the TRACE/HTRF technique and the % inhibition is calculated from the 665/620 ratios.
# Target sequence in this assay (P08581 956-1390): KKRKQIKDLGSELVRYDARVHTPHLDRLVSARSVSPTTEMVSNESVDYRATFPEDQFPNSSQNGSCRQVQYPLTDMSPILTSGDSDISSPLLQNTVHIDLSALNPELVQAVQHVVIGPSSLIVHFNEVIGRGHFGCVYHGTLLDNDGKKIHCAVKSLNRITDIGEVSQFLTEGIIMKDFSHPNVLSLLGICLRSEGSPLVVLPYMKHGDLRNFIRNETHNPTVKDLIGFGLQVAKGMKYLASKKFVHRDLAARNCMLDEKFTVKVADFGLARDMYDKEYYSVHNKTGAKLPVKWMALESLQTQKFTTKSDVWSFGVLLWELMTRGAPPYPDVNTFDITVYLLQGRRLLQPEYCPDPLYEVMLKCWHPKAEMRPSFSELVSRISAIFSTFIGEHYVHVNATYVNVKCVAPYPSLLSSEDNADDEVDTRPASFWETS
# [2] = biological target: T1, MET; assay: Test B: inhibition of the autophosphorylation of MET, ELISA technique (pppY1230, 1234, 1235) in MKN45 cells; assay type: cell-based; design: endogenous in cells; host or cells: MKN45 cells; settings: 1 h treatment, phosphoMET ELISA
# Experimental: B) Test B: Inhibition of the Autophosphorylation of MET; ELISA Technique (pppY1230, 1234, 1235)
# a) Cell lysates: Seed MKN45 cells into 96-well plates (Cell coat BD polylysine) at 20 000 cells/well in 200 μl in RPMI medium+10% FCS+1% L-glutamine. Leave to adhere for 24 hours in an incubator.
# The cells are treated the day after seeding with the products at 6 concentrations in duplicate for 1 h. At least 3 control wells are treated with the same final amount of DMSO.
# Product dilution: Stock at 10 mM in pure DMSO—range from 10 mM to 30 μM with an increment of 3 in pure DMSO—intermediate 1/50 dilutions in culture medium and then removal of 10 μl added directly to the cells (200 μl): final range from 10 000 to 30 nM.
# At the end of the incubation, carefully remove the supernatant and rinse with 200 μl of PBS. Next, place 100 μl of lysis buffer directly in the wells on ice and incubate at 4° C. for 30 minutes. Lysis buffer: 10 mM Tris HCl, pH 7.4, 100 mM NaCl, 1 mM EDTA, 1 mM EGTA, 1% Triton X-100, 10% glycerol, 0.1% SDS, 0.5% deoxycholate, 20 mM NaF, 2 mM Na3VO4, 1 mM PMSF and cocktail of antiproteases.
# The 100 μl of lysates are transferred into a V-bottomed polypropylene plate and the ELISA is performed immediately, or the plate is frozen at −80° C.
# b) PhosphoMET ELISA BioSource Kit KH00281
# Into each well of the kit plate, add 70 μl of kit dilution buffer+30 μl of cell lysate or 30 μl of lysis buffer for the blanks. Incubate for 2 h with gentle agitation at ambient temperature.
# Rinse the wells 4 times with 400 μl of kit washing buffer. Incubate with 100 μl of anti-phospho MET antibody for 1 hour at ambient temperature.
# Rinse the wells 4 times with 400 μl of kit washing buffer. Incubate with 100 μl of anti-rabbit HRP antibody for 30 minutes at ambient temperature (except for the wells of chromogen alone).
# Rinse the wells 4 times with 400 μl of kit washing buffer. Introduce 100 μl of chromogen and incubate for 30 minutes in the dark at ambient temperature.
# Stop the reaction with 100 μl of stop solution. Read without delay at […], 0.1 second on Wallac Victor plate reader.
# Target sequence in this assay (P08581 25-1390): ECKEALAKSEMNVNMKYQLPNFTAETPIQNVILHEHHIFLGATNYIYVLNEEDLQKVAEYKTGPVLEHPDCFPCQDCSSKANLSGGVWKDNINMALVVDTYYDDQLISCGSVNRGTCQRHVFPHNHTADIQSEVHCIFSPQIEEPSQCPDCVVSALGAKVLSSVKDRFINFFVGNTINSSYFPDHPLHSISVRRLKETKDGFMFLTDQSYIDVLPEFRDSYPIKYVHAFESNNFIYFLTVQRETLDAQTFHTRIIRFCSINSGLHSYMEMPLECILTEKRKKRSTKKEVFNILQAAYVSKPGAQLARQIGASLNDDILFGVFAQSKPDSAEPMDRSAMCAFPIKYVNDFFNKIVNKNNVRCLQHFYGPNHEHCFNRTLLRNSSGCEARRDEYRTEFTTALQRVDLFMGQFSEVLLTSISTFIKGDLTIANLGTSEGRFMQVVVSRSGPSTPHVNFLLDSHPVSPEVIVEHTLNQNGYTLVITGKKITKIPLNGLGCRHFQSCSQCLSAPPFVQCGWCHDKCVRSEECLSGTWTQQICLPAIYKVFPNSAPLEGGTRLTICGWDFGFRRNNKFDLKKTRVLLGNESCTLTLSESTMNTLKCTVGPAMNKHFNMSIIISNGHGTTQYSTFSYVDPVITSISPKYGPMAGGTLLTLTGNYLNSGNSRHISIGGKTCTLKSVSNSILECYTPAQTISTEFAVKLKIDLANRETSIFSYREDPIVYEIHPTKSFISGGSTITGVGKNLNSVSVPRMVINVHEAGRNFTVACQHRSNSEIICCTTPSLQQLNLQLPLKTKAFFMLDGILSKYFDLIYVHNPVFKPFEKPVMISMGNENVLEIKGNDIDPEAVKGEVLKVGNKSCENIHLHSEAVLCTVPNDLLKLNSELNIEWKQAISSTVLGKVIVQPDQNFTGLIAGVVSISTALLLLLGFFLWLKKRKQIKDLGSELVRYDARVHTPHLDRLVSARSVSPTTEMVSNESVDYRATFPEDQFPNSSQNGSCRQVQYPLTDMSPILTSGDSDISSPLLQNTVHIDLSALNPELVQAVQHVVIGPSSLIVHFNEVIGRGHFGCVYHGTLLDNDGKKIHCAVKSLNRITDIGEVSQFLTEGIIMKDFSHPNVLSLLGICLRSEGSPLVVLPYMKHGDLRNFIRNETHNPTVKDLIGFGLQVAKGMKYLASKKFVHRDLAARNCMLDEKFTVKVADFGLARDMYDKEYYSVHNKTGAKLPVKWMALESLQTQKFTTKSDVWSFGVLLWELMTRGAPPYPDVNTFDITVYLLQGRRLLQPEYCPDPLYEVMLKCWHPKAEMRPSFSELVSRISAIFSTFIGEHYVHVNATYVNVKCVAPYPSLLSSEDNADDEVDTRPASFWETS
# [3] = test system: HCT116 cells and MKN45 cells; assay: Test C: measurement of cell proliferation by 14C-thymidine pulse; assay type: cell-based; settings: 14C-thymidine incorporation, 96 h of treatment; cell line not stated (HCT116 and MKN45 in method)
# Experimental: C) Test C: Measurement of cell proliferation by ^14C-thymidine pulse
# The cells are seeded into Cytostar 96-well plates in 180 μl for 4 hours at 37° C. and 5% CO2: HCT116 cells at a rate of 2500 cells per well in DMEM medium+10% foetal calf serum+1% L-glutamine and MKN45 cells at a rate of 7500 cells per well in RPMI medium+10% foetal calf serum+1% L-glutamine. After these 4 hours of incubation, the products are added in 10 μl as a 20-fold concentrated solution according to the dilution method mentioned for the ELISA. The products are tested at 10 concentrations in duplicate from 10 000 nM to 0.3 nM with an increment of 3.
# After treatment for 72 h, add 10 μl of ^14C-thymidine at 10 μCi/ml to obtain 0.1 μCi per well. The ^14C-thymidine incorporation is measured on a Micro-Beta machine (Perkin-Elmer) after 24 hours of pulse and 96 h of treatment.
# All the stages of the assay are automated on BIOMEK 2000 or TECAN stations.
melting point [°C],IC50 [1] [nM],IC50 [2] [nM],IC50 [3] [nM],Structure (SMILES)
270,< 100,< 500,< 1000,"O=C(Nc1nc2ccc(Sc3cnc4ncccn34)cc2s1)C1CCOCC1 [Example 27, N-[6-(imidazo[1,2-a]pyrimidin-3-ylsulphanyl)-1,3-benzothiazol-2-yl]tetrahydro-2H-pyran-4-carboxamide]"
> 260,< 100,< 500,< 1000,"Nc1nc2ccc(Sc3cnc4ncccn34)cc2s1 [Example 1, 6-(imidazo[1,2-a]pyrimidin-3-ylsulphanyl)-1,3-benzothiazol-2-amine]"
> 264,< 100,< 100,< 1000,"Nc1nc2cc(F)c(Sc3cnc4ncccn34)cc2s1 [Example 19, 5-fluoro-6-(imidazo[1,2-a]pyrimidin-3-ylsulphanyl)-1,3-benzothiazol-2-amine]"
224,< 100,< 100,< 1000,"O=C(CN1CCN(C2CC2)CC1)Nc1nc2ccc(Sc3cnc4ncccn34)cc2s1 [Example 16, 2-(4-cyclopropylpiperazin-1-yl)-N-[6-(imidazo[1,2-a]pyrimidin-3-ylsulphanyl)-1,3-benzothiazol-2-yl]acetamide]"
> 260,< 100,< 100,< 1000,"CC(=O)Nc1nc2ccc(Sc3cnc4ncccn34)cc2s1 [Example 3, N-[6-(imidazo[1,2-a]pyrimidin-3-ylsulphanyl)-1,3-benzothiazol-2-yl]acetamide]"
> 260,< 100,< 100,< 1000,"O=C(Nc1nc2ccc(Sc3cnc4ncc(NCc5ccccc5)cn34)cc2s1)C1CC1 [Example 26, N-(6-{[6-(benzylamino)imidazo[1,2-a]pyrimidin-3-yl]sulphanyl}-1,3-benzothiazol-2-yl)cyclopropanecarboxamide]"
180,< 100,< 500,< 1000,"CCN(CC)CC(=O)Nc1nc2ccc(Sc3cnc4ncccn34)cc2s1 [Example 17, N2,N2-diethyl-N-[6-(imidazo[1,2-a]pyrimidin-3-ylsulphanyl)-1,3-benzothiazol-2-yl]glycinamide]"
258,< 100,< 100,< 1000,"O=C(Nc1nc2ccc(Sc3cnc4ncccn34)cc2s1)C1CC1 [Example 2, N-[6-(imidazo[1,2-a]pyrimidin-3-ylsulphanyl)-1,3-benzothiazol-2-yl]cyclopropanecarboxamide]"
225,< 100,< 100,< 1000,"COCCC(=O)Nc1nc2ccc(Sc3cnc4ncccn34)cc2s1 [Example 20, N-[6-(imidazo[1,2-a]pyrimidin-3-ylsulphanyl)-1,3-benzothiazol-2-yl]-3-methoxypropanamide]"
247,< 100,< 100,< 1000,"O=C(CCN1CCCC1)Nc1nc2ccc(Sc3cnc4ncccn34)cc2s1 [Example 8, N-[6-(imidazo[1,2-a]pyrimidin-3-ylsulphanyl)-1,3-benzothiazol-2-yl]-3-(pyrrolidin-1-yl)propanamide]"
> 260,< 100,< 100,< 1000,"O=C(NCCN1CCOCC1)Nc1nc2ccc(Sc3cnc4ncccn34)cc2s1 [Example 4, 1-[6-(imidazo[1,2-a]pyrimidin-3-ylsulphanyl)-1,3-benzothiazol-2-yl]-3-[2-(morpholin-4-yl)ethyl]urea]"
232,< 100,< 100,< 1000,"O=C(Nc1nc2ccc(S(=O)(=O)c3cnc4ncccn34)cc2s1)C1CC1 [Example 7, N-[6-(imidazo[1,2-a]pyrimidin-3-ylsulphonyl)-1,3-benzothiazol-2-yl]cyclopropanecarboxamide]"
> 264,< 100,< 100,< 1000,"Nc1ccn2c(Sc3ccc4nc(NC(=O)C5CC5)sc4c3)cnc2n1 [Example 22, N-{6-[(7-aminoimidazo[1,2-a]pyrimidin-3-yl)sulphanyl]-1,3-benzothiazol-2-yl}cyclopropanecarboxamide]"
> 260,< 100,< 100,< 1000,"O=C(Nc1nc2cc(F)c(Sc3cnc4ncccn34)cc2s1)C1CC1 [Example 18, N-[5-fluoro-6-(imidazo[1,2-a]pyrimidin-3-ylsulphanyl)-1,3-benzothiazol-2-yl]cyclopropanecarboxamide]"
